Where two headings read alike, the source gives them in different places.
How the values were obtained:
[1] = target: IspH; format: biochemical
[2] = test system: IspH; conditions: cited from earlier work
[3] = test system: IspG; conditions: cited from earlier work

Compound: Nc1ccc2c(c1)CC1(C(=O)NC(=O)NC1=O)C1CN(Cc3ccccc3)CCN21 (stereo not shown) [Compound 9, 8-amino-3-benzyl-2,3,4,4a-tetrahydro-1H,2′H,6H-spiro[pyrazino[1,2-a]quinoline-5,5′-pyrimidine]-2′,4′,6′ (1′H,3′H)-trione]
- Ki ([1]; read-out: Ki of barbiturate analogs, IspH (summary over enzymes)): 0.5 to 3 µM

Compound: C#CCOP(=O)(O)OP(=O)(O)O [Compound 5, propargyl diphosphate]
- IspH inhibition (in words) [2]: low μM inhibitors
- IspG inhibition (in words) [3]: low μM inhibitors

Compound: C#CCO [propargyl alcohol]
- Ki ([1]; read-out: IspH inhibition Ki): > 10000 µM

Reference: paper PMC5445010 (Chembiochem : a European journal of chemical biology, 2017)
